pEC50: −log10 of the molar value.
Assays:
[1] = Pharmacokinetic profile following intravenous administration in rats; assay type: in vivo; conditions: serum, rat, 0.5 mg/kg
Procedure: A rat is dosed intravenously with a solution of test compound (0.5 mg/kg) in DMSO/EtOH/H2O/propylene glycol [0.2:0.8:5:4] and blood samples are taken from the sublingual venous plexus after 2 min, 10 min, 30 min, 1 h, 2 h, 4 h and 6 h.
Blood samples are taken in BD Vacutainer SST serum separation tubes, serum is isolated by centrifugation, transferred to micronics tubes and analyzed. Samples are kept at −18° C. pending analysis.
Mass spectrometer (API5000 series) parameters are optimised to analyse for the specific compounds and test injections are performed to confirm the validity of the established generic chromatography method. The generic method is based on fast gradient (2.5 min) analysis on C18 column with mobile phases consisting methanol, ammonium acetate, formic acid and water.
Standards are prepared in rat serum to cover the analytical range 0.1 to 300 ng/ml. Standards, blank serum and study samples are applied to 96 deepwell plate and proteins are precipitated by addition of acetonitrile containing internal standard. Samples are analysed on LC-MS/MS usually over night.
As standard, the 2 and 10 min samples are diluted 10 times with rat serum prior to analysis. Other samples may need similar dilution to keep quantification below 300 ng/ml.
Quantification is performed based on the ratio between analyte and internal standard. The curve should preferably fit a linear curve using a 1/x weighting factor. At least a factor of two is needed to distinguish between blank serum and lowest standard. If this is not the case the quantification of the specific experiment may be raised.
Calculation of T½ requires at least three datapoints describing a true elimination phase. If such three points are not available AUC (0-inf) can not be estimated. In these cases […](0-6 h) is calculated instead.
Total clearance of drug from serum (Cl_iv) is calculated from: Cl—iv=Dose/AUC
Terminal volume of distribution (Vd) is defined as the volume in which the amount of drug would need to be uniformly distributed to produce the observed serum concentration and is calculated from: Vd=T½×Cl—iv/(ln 2)

[2] = target: T1, human CaSR (Homo sapiens, UniProt P41180); assay: Functional whole cell assay (modulation of human CaSR), IP1 accumulation in CHO-K1 cells; assay type: cell-based; conditions: human CaSR stably expressed on CHO-K1 cells, 2 mM Ca2+, IP-One htrf
T1 sequence (P41180 20-1078): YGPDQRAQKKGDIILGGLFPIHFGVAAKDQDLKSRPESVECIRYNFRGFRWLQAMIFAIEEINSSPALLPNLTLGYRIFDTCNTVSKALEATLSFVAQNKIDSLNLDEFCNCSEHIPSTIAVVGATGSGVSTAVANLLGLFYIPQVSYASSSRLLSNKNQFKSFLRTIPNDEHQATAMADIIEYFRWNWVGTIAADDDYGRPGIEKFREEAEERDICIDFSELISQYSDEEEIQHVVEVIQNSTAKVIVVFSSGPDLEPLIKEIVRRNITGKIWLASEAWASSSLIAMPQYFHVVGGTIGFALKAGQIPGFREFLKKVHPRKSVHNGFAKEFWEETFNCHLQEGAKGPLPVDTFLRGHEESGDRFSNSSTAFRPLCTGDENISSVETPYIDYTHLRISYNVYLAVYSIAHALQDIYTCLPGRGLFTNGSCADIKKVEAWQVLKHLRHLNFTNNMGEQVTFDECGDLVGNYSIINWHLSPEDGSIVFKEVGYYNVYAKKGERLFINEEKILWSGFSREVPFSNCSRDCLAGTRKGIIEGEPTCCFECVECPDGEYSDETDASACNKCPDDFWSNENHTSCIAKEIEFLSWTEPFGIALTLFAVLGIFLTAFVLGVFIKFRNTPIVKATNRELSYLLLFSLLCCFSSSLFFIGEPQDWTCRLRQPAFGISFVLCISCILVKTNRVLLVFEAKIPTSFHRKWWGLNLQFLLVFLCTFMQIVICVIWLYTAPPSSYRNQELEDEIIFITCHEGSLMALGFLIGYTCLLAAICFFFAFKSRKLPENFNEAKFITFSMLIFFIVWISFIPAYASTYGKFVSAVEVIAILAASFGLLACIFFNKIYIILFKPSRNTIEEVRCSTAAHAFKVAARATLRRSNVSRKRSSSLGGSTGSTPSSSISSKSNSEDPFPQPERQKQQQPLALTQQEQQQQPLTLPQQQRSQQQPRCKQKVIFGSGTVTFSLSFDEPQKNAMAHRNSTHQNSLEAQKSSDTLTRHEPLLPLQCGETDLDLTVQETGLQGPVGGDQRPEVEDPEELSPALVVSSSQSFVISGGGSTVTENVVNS
Excerpt: The assay investigates a compound's functional ability to act as a biological positive modulator on the human CaSR. Activation of the receptor expressed on CHO-K1 cells is detected through the G alpha q pathway, the activation of phospholipase C and the accumulation of intracellular inositol phosphate (IP) as described earlier [Sandrine Ferry, Bruno Chatel, Robert H. Dodd, Christine Lair, Danielle Gully, Jean-Pierre, Maffrand, and Martial Ruat. Effects of Divalent Cations and of a Calcimimetic on Adrenocorticotropic Hormone Release in Pituitary Tumor Cells. BIOCHEMICAL AND BIOPHYSICAL RESEARCH COMMUNICATIONS 238, 866-873 (1997)]. The human CaSR is stably expressed on a CHO-K1 cell clone, stimulated with a basal level of calcium and challenged with the tested compound. The level of IP1 is determined using the IP-One htrf kit (Cisbio, France). CHO-K1 cells not transfected with the CaSR fail to elicit an IP1 response upon calcium and/or compound stimulation.
The ORF coding for the human CaSR (genebank: NM_000388) was acquired from Invitrogen Corp, USA and subsequently cloned into the mammalian expression vector pCDA3.1.
CHO-K1 cells were transfected using Lipofectamine according to manufacturer's protocol (400.000 cells/well were seeded in a 6-well plate and transfected after 24 hours using 2 μg DNA and 5 μl lipofectamine). After another 24 hours the cells were detached, seeded and subjected to 1 mg/ml of G-418. Following 7 days growth single clones were picked, the CaSR expression evaluated using the 5C10 antibody against CaSR, the clones with the highest expression were selected and tested for functional response. The preferred clone was continuously cultured according to standard procedures described in ATCC (American Type Culture Collection) protocols for CHO-K1 with the addition of 500 μg/ml G-418.
On the assay day cells were harvested and resuspended to 13*10^6 cells/ml in stimulation buffer (containing: Hepes 10 mM, MgCl2 0.5 mM, KCl 4.2 mM, NaCl 146 mM, glucose 5.5 mM, LiCl 50 mM at pH 7.4). Five μl cell solution were pipetted into a well (white 384-well plate, Perkin Elmer Optiplate) followed by 5 μl compound diluted in a Ca^2+-containing (to the final concentration of 2 mM) buffer. After compound stimulation for 1 hour at 37° C. 10 ul of IP-One assay reagents were added and incubated for another 1 hour at room temperature. Finally the plate was read using a Perkin Elmer EnVision, according to protocol supplied by the IP-One assay kit manufacturer. The FRET ratio was calculated by dividing the 665 nm emission signal with that of the 615 nm.

[3] = Clearance in human liver microsomes; assay type: in vitro ADME; conditions: 0.5 μM compound, 0.5 mg/mL microsomes, 1 mM NADPH
Procedure: Test compound concentration is 0.5 μM, microsome concentration is 0.5 mg/mL and NADPH concentration is 1 mM in the incubation. The described method is performed by the liquid handling system Tecan RSP and is based on a 96-well format.
Control incubations with test compound without NADPH and test compound without microsomes are conducted to investigate non-CYP mediated metabolism and stability in phosphate buffer at 37° C., respectively.
The human liver microsomal suspension in phosphate buffer is mixed with NADPH. The mixture is pre-heated (7 min) to 37° C. Test compound is added, and the mixture is incubated for 30 minutes. Incubations are run in duplicate. Samples are withdrawn at predetermined stop times and mixed with methanol containing internal standard (IS) to terminate all enzyme activity and precipitate proteins. A control without NADPH (to detect problems such as nonspecific protein binding, heat instability or non-CYP mediated metabolism) and a control without microsomes (for assessing compound stability in the absence of any active enzymes) are tested.
The percentage of organic solvent in the incubations is less than 1%. Careful inspections of reagents are performed prior to the start of any experiment to ensure all reagents are in solution.
The 96-well plates are centrifuged. Test compound depletion, using a compound specific LC/MS/MS method, is determined.
The logarithm of the peak area ratios of test compound to internal standard (IS) versus incubation time is plotted in a graph.
The rate constant (k) (min^−1) of test compound depletion is calculated from the linear part of the curve and the half-time (t1/2) in minutes can be calculated from the rate constant (Eq. 1). t1/2=(ln 2)/k (Eq. 1)
Intrinsic clearance (Clint) (mL/min/mg protein) is calculated from: Clint=k/c (Eq. 2) where c is the microsomal protein concentration in mg/mL.
Conversion to apparent clearance (Clapp) (mL/min/kg) is done by Eq. 3: Clapp=Clint×a×b/d (Eq. 3) where a, b and d are the scaling factors for normalizing Clint to human body weight.
The following human scaling factors are used:
a: 45 (microsomal protein/liver weight (mg/g))
b: 1500 (liver weight (g))
Apparent clearance below approximately 10 mL/min/kg human body weight (corresponding to extraction ratio of approx. 30%) is considered as low clearance (high metabolic stability). Apparent intrinsic clearance above approximately 60 mL/min/kg human body weight (corresponding to extraction ratio of approx. 75%) is considered as high clearance (low metabolic stability).

SMILES | Vd [1] | pEC50 [2] | Clearance (Clapp) in human liver microsomes [3]
COc1cc([C@@H](C)NC2CCC(c3ccc(CNS(C)(=O)=O)cc3)C2)ccc1F (mixture of isomers) [Compound 1181, N-[[4-[(1R/S,3R/S)-3-[[(1R)-1-(4-fluoro-3-methoxy-phenyl)ethyl]amino]cyclopentyl]-phenyl]methyl]methanesulfonamide] |  | > 6.30 | A (A: <20 mL/min/kg)
COc1cc([C@@H](C)NC2CC[C@H](c3ccc(S(C)(=O)=O)cc3)C2)ccc1F (stereo partly drawn) [Compound 1014, (1R)—(N)-[(1R/S,3S)-3-(4-methanesulfonylphenyl)cyclopentyl]-1-(4-fluoro-3-methoxyphenyl)ethanamine] |  | > 6.30 | A (A: <20 mL/min/kg)
COc1cc([C@@H](C)N[C@H]2CC[C@@H](c3ccc(C(=O)N4CCNC(=O)C4)cc3)C2)ccc1F [Compound 1179, 4-(4-{(1R,3S)-3-[(1R)-1-(4-Fluoro-3-methoxy-phenyl)-ethylamino]-cyclopentyl}-benzoyl)-piperazin-2-one] | 10 to 50 L/kg | > 6.30 | A (A: <20 mL/min/kg)
COc1cc([C@@H](C)N[C@H]2CC[C@@H](c3ccc(-c4nnn[nH]4)cc3)C2)ccc1F [Compound 1182, (1S,3R)—N-[(1R)-1-(4-fluoro-3-methoxy-phenyl)ethyl]-3-[4-(1H-tetrazol-5-yl)phenyl]cyclopentanamine] | < 10 L/kg | > 6.30 | A (A: <20 mL/min/kg)
COc1cc([C@@H](C)N[C@H]2CC[C@@H](c3ccc(S(=O)(=O)NCCO)cc3)C2)ccc1F [Compound 1187, 4-[(1R,3S)-3-[[(1R)-1-(4-fluoro-3-methoxy-phenyl)ethyl]amino]-cyclopentyl]-N-(2-hydroxyethyl)benzenesulfonamide] | > 50 L/kg | > 6.30 | A (A: <20 mL/min/kg)

Now from value to molecule:

Vd [1] | pEC50 [2] | Clearance (Clapp) in human liver microsomes [3] | SMILES
10 to 50 L/kg | > 6.30 | A (A: <20 mL/min/kg) | COc1cc([C@@H](C)NC2CC[C@H](c3ccc(C(=O)NC4CCNCC4)cc3)C2)ccc1F (mixture of isomers) [Compound 1157, (1R)—(N)-[(3S)-3-[4-[piperidin-4-ylaminocarbonyl]phenyl]-cyclopentyl]-1-(4-fluoro-3-methoxyphenyl)ethanamine]
 | > 6.30 | A (A: <20 mL/min/kg) | COc1cc([C@@H](C)N[C@H]2CC[C@@H](c3ccc(C(=O)NCCO)cc3)C2)ccc1F [Compound 1176, 4-{(1R,3S)-3-[(1R)-1-(4-Fluoro-3-methoxy-phenyl)-ethylamino]-cyclopentyl}-N-(2-hydroxy-ethyl)-benzamide]
> 50 L/kg | > 6.30 | A (A: <20 mL/min/kg) | COc1cc([C@@H](C)N[C@H]2CC[C@@H](c3ccc(C(=O)NCCNS(C)(=O)=O)cc3)C2)ccc1F.Cl [Compound 1178, 4-{(1R,3S)-3-[(1R)-1-(4-Fluoro-3-methoxy-phenyl)-ethylamino]-cyclopentyl}-N-(2-methanesulfonylamino-ethyl)-benzamide hydrochloride]
